In ChEMBL document CHEMBL4842364 (J Med Chem, 2021):

Assays:
[1] = test system: Epidermal growth factor receptor (Homo sapiens), P00533 [UNDEFINED MUTATION]; test: Inhibition of EGFR d746-750 mutant (unknown origin) at 1 uM relative to control
[2] = AUC(0 to 24 hrs) in mouse at 60 mg/kg, po; format: ADME, organism-based; parameters: time < 24 hr, route oral, dose 60 mg/kg; conditions: in vivo
[3] = Half life in Beagle dog at 3 mg/kg, iv measured upto 24 hrs by LC-MS/MS analysis; format: ADME, organism-based, Canis lupus familiaris; conditions: in vivo
[4] = Volume of distribution at steady state in Beagle dog at 3 mg/kg, iv measured upto 24 hrs by LC-MS/MS analysis; format: ADME, organism-based, Canis lupus familiaris; conditions: in vivo, read-out: Vdss
[5] = test system: NCI-H23; test: Antiproliferative activity against human NCI-H23 cells assessed as reduction in cell viability after 4 days by CellTiter-Glo assay; conditions: Homo sapiens, NCI-H23, 96 h
[6] = molecular target: Serine/threonine-protein kinase PLK3 (Homo sapiens, UniProt Q9H4B4); test: Inhibition of PLK3 (unknown origin) at 1 uM relative to control
[7] = molecular target: Serine/threonine-protein kinase PLK2 (Homo sapiens, UniProt Q9NYY3); test: Inhibition of PLK2 (unknown origin) at 1 uM relative to control
[8] = AUC(0 to 24 hrs) in rat at 60 mg/kg, po; format: ADME, organism-based; parameters: time < 24 hr, route oral, dose 60 mg/kg; conditions: in vivo
[9] = test system: A-427; test: Antiproliferative activity against human A-427 cells assessed as reduction in cell viability after 3 days by CellTiter-Glo assay; format: functional, cell-based; conditions: A-427, 72 h
[10] = Intrinsic clearance in mouse microsomes; format: ADME, Microsome
[11] = Half life in Beagle dog at 10 mg/kg, po measured upto 24 hrs by LC-MS/MS analysis; format: ADME, organism-based, Canis lupus familiaris; conditions: in vivo
[12] = AUC in Beagle dog at 3 mg/kg, iv measured upto 24 hrs by LC-MS/MS analysis; format: ADME, organism-based, Canis lupus familiaris; parameters: route intravenous, dose 3 mg/kg, time <=24; conditions: in vivo
[13] = molecular target: T1, Mitogen-activated protein kinase kinase kinase 19 (Homo sapiens, UniProt Q56UN5); test: Inhibition of YSK4 (unknown origin)
T1 sequence (Q56UN5 whole entry): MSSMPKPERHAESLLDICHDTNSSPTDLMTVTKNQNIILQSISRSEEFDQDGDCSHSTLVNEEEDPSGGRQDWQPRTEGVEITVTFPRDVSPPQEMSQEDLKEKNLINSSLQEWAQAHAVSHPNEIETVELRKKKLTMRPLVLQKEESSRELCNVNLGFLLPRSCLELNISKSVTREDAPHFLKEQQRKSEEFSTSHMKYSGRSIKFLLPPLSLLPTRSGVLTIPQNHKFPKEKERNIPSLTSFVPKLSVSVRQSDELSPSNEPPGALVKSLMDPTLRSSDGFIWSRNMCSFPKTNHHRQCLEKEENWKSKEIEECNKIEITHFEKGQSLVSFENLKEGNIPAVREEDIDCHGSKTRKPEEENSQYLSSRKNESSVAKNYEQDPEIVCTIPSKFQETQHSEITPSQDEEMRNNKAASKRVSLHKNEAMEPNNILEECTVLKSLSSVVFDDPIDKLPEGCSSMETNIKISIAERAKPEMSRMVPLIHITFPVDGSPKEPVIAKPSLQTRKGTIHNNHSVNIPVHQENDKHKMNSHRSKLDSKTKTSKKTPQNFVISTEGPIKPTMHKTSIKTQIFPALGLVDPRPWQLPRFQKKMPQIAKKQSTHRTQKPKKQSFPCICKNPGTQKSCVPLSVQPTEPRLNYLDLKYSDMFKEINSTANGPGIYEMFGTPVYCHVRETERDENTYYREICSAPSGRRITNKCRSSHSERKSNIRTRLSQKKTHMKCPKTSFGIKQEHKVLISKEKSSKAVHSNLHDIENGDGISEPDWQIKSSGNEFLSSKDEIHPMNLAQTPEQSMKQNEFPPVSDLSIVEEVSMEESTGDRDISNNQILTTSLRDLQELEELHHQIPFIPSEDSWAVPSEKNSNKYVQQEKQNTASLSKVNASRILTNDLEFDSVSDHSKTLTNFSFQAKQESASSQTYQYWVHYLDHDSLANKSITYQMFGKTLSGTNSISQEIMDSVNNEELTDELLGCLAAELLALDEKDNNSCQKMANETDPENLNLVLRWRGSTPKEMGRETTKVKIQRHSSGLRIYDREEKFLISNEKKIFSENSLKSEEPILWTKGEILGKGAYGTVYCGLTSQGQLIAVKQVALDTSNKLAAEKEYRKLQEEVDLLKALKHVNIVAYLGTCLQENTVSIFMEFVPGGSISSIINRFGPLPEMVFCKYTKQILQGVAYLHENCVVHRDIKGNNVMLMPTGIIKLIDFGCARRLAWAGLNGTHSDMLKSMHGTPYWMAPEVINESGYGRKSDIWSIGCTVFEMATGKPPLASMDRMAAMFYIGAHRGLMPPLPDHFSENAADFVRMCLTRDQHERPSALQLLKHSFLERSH

[14] = molecular target: Voltage-gated inwardly rectifying potassium channel KCNH2 (Homo sapiens, UniProt Q12809); test: Inhibition of human ERG
Chain of Voltage-gated inwardly rectifying potassium channel KCNH2 (Q12809 whole entry): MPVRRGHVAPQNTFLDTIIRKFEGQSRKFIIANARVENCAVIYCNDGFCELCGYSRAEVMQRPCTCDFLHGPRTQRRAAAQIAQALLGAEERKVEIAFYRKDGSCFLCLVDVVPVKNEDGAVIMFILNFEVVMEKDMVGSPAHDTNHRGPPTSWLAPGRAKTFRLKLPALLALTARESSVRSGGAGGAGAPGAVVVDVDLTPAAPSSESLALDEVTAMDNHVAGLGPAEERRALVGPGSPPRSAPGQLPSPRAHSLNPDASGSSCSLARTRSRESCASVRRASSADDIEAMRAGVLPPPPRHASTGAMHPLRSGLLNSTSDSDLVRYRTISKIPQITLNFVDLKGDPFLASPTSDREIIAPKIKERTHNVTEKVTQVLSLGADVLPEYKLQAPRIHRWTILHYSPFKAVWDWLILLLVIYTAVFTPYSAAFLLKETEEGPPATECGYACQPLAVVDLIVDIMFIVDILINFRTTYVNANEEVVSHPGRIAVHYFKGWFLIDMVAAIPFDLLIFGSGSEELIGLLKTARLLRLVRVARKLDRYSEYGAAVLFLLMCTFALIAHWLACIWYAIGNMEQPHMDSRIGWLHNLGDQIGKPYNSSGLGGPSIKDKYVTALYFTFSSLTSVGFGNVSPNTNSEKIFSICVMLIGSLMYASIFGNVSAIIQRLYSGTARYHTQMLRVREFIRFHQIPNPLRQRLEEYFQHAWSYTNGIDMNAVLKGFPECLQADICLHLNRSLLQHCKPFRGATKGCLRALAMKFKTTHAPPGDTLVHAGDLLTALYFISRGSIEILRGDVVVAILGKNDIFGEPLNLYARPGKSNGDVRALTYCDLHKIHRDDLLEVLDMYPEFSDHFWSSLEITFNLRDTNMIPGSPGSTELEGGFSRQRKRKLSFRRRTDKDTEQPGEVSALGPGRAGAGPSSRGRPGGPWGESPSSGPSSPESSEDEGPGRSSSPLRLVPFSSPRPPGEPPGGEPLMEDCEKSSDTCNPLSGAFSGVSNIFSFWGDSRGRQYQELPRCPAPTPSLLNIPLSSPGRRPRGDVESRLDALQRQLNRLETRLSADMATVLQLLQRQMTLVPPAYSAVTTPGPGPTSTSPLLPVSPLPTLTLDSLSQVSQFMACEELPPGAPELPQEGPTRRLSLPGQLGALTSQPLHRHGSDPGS

Chain of Epidermal growth factor receptor (Homo sapiens), P00533 [UNDEFINED MUTATION] (P00533 whole entry, looked up, change not shown): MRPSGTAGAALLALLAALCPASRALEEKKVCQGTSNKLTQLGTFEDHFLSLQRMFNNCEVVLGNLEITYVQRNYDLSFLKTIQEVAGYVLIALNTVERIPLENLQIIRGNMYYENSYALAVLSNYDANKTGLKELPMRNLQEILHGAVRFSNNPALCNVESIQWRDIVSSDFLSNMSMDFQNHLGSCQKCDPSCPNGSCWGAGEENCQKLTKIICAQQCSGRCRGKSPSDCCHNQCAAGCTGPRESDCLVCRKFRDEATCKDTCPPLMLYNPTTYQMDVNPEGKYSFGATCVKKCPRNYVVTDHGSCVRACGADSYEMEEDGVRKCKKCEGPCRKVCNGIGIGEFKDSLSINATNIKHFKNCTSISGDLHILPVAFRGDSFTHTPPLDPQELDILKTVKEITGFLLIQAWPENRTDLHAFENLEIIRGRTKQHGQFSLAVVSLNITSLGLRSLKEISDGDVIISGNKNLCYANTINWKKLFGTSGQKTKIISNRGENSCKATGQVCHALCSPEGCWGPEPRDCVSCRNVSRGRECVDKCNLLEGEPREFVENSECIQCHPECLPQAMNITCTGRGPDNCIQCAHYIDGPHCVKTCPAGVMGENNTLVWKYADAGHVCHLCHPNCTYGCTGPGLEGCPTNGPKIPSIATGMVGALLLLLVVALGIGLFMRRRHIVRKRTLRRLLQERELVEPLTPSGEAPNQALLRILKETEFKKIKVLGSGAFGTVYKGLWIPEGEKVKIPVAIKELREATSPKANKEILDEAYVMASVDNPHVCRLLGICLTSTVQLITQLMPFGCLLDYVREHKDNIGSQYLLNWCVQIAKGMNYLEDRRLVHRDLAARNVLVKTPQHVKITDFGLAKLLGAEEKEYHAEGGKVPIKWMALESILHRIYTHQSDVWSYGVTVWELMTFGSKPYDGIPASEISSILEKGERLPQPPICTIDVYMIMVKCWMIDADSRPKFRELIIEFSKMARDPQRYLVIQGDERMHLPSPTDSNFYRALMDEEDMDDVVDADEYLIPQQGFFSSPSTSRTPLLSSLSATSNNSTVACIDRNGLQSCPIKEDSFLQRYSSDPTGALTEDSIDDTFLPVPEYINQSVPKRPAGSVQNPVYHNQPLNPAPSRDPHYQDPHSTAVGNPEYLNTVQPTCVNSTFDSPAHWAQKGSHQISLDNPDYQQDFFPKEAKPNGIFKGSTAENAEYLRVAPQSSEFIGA
Chain of Serine/threonine-protein kinase PLK3 (Q9H4B4 whole entry, looked up): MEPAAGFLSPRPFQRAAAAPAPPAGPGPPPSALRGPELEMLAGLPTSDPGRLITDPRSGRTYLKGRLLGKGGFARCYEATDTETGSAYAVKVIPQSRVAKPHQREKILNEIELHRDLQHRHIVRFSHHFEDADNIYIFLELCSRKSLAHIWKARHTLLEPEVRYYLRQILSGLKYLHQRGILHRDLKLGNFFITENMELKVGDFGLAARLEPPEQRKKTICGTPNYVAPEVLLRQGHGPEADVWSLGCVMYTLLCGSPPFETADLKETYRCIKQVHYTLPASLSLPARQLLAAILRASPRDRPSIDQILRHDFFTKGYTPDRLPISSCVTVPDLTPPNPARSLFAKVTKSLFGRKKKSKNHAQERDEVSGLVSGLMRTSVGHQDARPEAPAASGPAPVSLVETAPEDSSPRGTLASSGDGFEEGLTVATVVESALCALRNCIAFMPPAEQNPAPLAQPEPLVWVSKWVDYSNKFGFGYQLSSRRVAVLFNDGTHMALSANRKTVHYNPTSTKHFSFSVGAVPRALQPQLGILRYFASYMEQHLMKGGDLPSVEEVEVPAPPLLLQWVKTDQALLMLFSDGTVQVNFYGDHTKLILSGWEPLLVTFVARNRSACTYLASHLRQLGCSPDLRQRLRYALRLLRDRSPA
Chain of Serine/threonine-protein kinase PLK2 (Q9NYY3 whole entry, looked up): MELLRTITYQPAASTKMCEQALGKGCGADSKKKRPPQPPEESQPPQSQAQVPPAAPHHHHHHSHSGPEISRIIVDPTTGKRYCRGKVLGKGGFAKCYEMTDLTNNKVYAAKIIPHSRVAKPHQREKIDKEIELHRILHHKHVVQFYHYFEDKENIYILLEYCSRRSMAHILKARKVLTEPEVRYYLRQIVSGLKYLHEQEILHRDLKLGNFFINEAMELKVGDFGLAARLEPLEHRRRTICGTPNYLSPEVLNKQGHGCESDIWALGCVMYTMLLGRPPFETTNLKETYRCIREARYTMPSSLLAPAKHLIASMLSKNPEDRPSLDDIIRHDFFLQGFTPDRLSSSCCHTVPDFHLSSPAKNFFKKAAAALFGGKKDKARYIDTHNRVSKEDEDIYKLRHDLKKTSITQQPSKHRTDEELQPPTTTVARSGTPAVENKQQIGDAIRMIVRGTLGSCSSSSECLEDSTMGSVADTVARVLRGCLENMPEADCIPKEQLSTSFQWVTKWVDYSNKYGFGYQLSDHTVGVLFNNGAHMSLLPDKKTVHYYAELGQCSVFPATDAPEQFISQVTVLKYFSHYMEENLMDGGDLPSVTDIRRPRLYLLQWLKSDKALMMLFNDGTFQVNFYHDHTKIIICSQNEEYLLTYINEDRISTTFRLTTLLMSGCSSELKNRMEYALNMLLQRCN

inhibition [1]: 75%
AUC(0-t) at 24 h [2]: 32 µM·h
half-life [3]: 1.4 h
Vd [4]: 4.4 L/kg
IC50 [5]: 103 nM
inhibition [6]: > 90%
inhibition [7]: > 90%
AUC(0-t) at 24 h [8]: 27 µM·h
CLint scaled [10]: 74 mL/min/kg
half-life [11]: 2.3 h
AUC at 24 h [12]: 2.1 µM·h
IC50 [13]: 59 nM
Compound: C=CCn1c(=O)c2cnc(Nc3ccc(N4CCN(C)CC4)cc3)nc2n1-c1ccc2c(n1)C(O)(CC)CC2 (racemic)
IC50 [9]: 75 nM
IC50 [14]: > 30000 nM
